{"source": "patent US7795285B2", "about": "“Anti-trypanosomiasis agent” (Fujifilm Corporation, priority 2004, dated 2010)", "assay_type_in_all_cases": "cell-based", "key": {"[1]": {"system": "Trypanosoma brucei rhodensiense (STIB 900 strain)", "assay": "African trypanosome protozoa growth inhibition screening test (Alamar Blue, 72 hours)", "conditions": "for IC50: Trypanosoma brucei, read-out: 50% growth inhibiting concentration Trypanosoma brucei rhod.; for Selective toxicity: chemotherapy index, rat L6 cells versus African trypanosome protozoa", "experimental": "In the present example, protozoa of Trypanosoma brucei rhodensiense (STIB 900 strain), a trypamastigote living in blood stream, was used. The medium used in the experiment was a MEM medium which was sterilized with a filter and supplemented with 25 mM N-2-hydroxyethylpiperazine-2-ethansulfonic acid (HEPES), 1 g/L glucose, 1% MEM non-essential amino acid, 0.2 mM 2-mercaptoethanol, 2 mM sodium pyruvate, 0.1 mM hypoxanthine, and 15% heat-treated horse serum. The protozoa was cultured in an atmosphere of CO2 concentration 5%, at a temperature of 37° C.\nThe compounds of the present invention to be used in the present test and the positive target drug (melarsoprol) were dissolved in DMSO to make a test solution of a predetermined concentration. A medium containing 8×10^3 protozoa, and a test solution containing a drug of a predetermined concentration or a drug-free DMSO were added to wells of a 96-well culture plate, and subsequently, medium was added so that the amount in each well becomes 100 μL. Test solutions were taken by duplicates. After culturing the culture plate for 72 hours in an incubator, growth inhibition activity was tested. Test was conducted as follows.\n10 μL of Alamar Blue aqueous solution was added to each well, and the resultant was further cultured for 2 hours. Next, the culture plate was placed on a fluorescent micro-plate reader (Spectramax Gemeni XS; US Molecular Device), radiated at an excited wavelength of 536 nm. Fluorescent intensity was measured at 588 nm, to calculate the trypanosome protozoa infected rate of the test solution added-group, and of the control group. From the protozoan infection rate obtained in the above, growth inhibition rate was calculated with the following formula, to obtain a 50% growth inhibition concentration (IC50). Growth inhibition rate (%)={1−(b−a)/(c−a)}×100 a: early infection rate b: infection rate when test solution was added c: infection rate of the control\nChemotherapy index used as an index of selective toxicity against African trypanosome protozoa was calculated with the following formula, to determine drug efficacy."}, "[2]": {"assay": "Growth inhibition test of rat L6 cells (Alamar Blue, 72 hours)", "conditions": "72 hours culture, Table 1, read-out: 50% growth inhibiting concentration Cytotoxicity L6", "experimental": "(§1) Rat derived-L6 cells (rat skeletal myoblast cell) were used. As medium, RPMI1640 medium was supplemented so that L-glutamin (200 mM) is 1%, and fetal bovine serum 10%, and the medium was cultured under CO2 concentration 5%, at 37° C. The compounds of the present invention and the target drugs to be used in the test were dissolved in DMSO, to make a test solution of a predetermined concentration. Pre-culture was conducted and medium containing cells which have entered the logarithmic growth phase was taken to wells of a 96-well culture plate. Then, a test solution containing drug of a predetermined concentration or a drug-free DMSO was added. Test solutions were taken by duplicates. Culture plate was cultured for 72 hours in an incubator, to test the growth inhibition activity. Test was conducted as follows.\n(§2) 10 μL of Alamar Blue aqueous solution was added to each well, and the resultant was further cultured for 2 hours. Next, the culture plate was placed on a fluorescent micro-plate reader (Spectramax Gemeni XS; US Molecular Device), radiated at an excited wavelength of 536 nm. Fluorescent intensity was measured at 588 nm, and residual rate of L6 cells of the test solution added group, and that of the control was calculated. From the cell residual rate obtained in the above, growth inhibition rate to L6 cells was calculated, to obtain a 50% growth inhibition concentration (IC50). Growth inhibition rate (%)={(C−A)/(B−A)}×100 A: primary cell count B: cell count of control 3 days after C: cell count of wells added with a sample, 3 days after […]"}, "[3]": {"system": "Trypanosoma cruzi (Tulahuen C2C4 strain)", "assay": "American trypanosome protozoa growth inhibition screening test (CPRG/Nonidet, 96 hours)", "conditions": "for IC50: Trypanosoma cruzi, Tulahuen C2C4 strain in rat L6 cells, 96 hours culture, read-out: 50% growth inhibiting concentration Trypanosoma cruzi; for Selective toxicity: chemotherapy index, rat L6 cells versus American trypanosome protozoa", "experimental": "In the present example, amastigote and trypomastigote infected with rat L6 cells of protozoa of Trypanosoma cruzi (Tulahuen C2C4 strain) were used. As medium used in the test, RPMI 1640 medium containing L6 cells was supplemented so that L-glutamine (200 mM) becomes 1%, fetal bovine serum becomes 10%, which was cultured under CO2 concentration 5%, at 37° C.\nThe compounds of the present invention to be used in the test and the positive target agent (benznidazole) were dissolved in DMSO to make a test solution of a predetermined concentration. A medium containing 5×10^3 protozoa was added to wells of a 96-well culture plate, and pre-cultured for 48 hours. After replacing the medium, test solution containing drug of a predetermined concentration or a drug-free DMSO was added. Test solutions were taken by duplicates. After culturing the culture plate in an incubator for 96 hours, growth inhibition activity was tested. Test was conducted as follows.\n50 μL of CPRG/Nonidet was added to each well, and allowed to rest for 2 to 6 hours. Next, the culture plate was placed on a fluorescent micro-plate reader, and the absorbance was measured at 540 nm. Growth inhibition rate was calculated with the following formula based on the protozoan infection rate which was obtained by calculating trypanosome infection rate of test solution added group and control group, to obtain a 50% growth inhibition concentration (IC50). Growth inhibition rate (%)={1−(b−a)/(c−a)}×100 a: early infection rate b: infection rate when test solution was added c: infection rate of the control\nChemotherapy index used as an index of selective toxicity against American trypanosome protozoa was calculated with the following formula, to determine drug efficacy."}, "[4]": {"system": "Rat derived-L6 cells (rat skeletal myoblast cell)", "assay": "Growth inhibition test of rat L6 cells (Alamar Blue, 72 hours)", "conditions": "72 hours culture, Table 2, read-out: 50% growth inhibiting concentration Cytotoxicity L6", "experimental": "as §1, §2"}, "[5]": {"conditions": "STIB900, STIB 900 strain, bloodstream form, 72 hours culture"}, "[6]": {"conditions": "L6 cells (rat skeletal myoblasts)"}}, "note": "Read-outs that look alike come from different tables or passages of the source.", "data": [{"smiles": "CCn1c(=O)c(=C2C=CN(C)C=C2)s/c1=C\\c1sc2c3ccccc3ccc2[n+]1CC", "note": "[A-1]", "values": [{"measurement": "IC50", "setting": "[1]; [5]", "result": 0.76, "unit": "µM"}, {"measurement": "Selective toxicity", "setting": "[1]", "result": 176}, {"measurement": "IC50 at 72 h", "setting": "[2]; [6]", "result": 134, "unit": "µM"}, {"measurement": "IC50", "setting": "[3]", "result": 48, "unit": "µM"}, {"measurement": "Selective toxicity", "setting": "[3]", "result": 2.8}]}, {"smiles": "CCn1c(=O)/c(=C2\\C=CN(C)c3ccccc32)s/c1=C\\c1oc2ccccc2[n+]1CC", "note": "[A-2]", "values": [{"measurement": "IC50", "setting": "[1]; [5]", "result": 0.012, "unit": "µM"}, {"measurement": "Selective toxicity", "setting": "[1]", "result": 533}, {"measurement": "IC50 at 72 h", "setting": "[2]; [6]", "result": 6.4, "unit": "µM"}, {"measurement": "IC50", "setting": "[3]", "result": 0.53, "unit": "µM"}, {"measurement": "Selective toxicity", "setting": "[3]", "result": 10}]}, {"smiles": "CCn1c(=O)/c(=C2\\SCCN2C)s/c1=C\\c1sc2ccc3ccccc3c2[n+]1CC", "note": "[B-1]", "values": [{"measurement": "IC50", "setting": "[1]; [5]", "result": 0.095, "unit": "µM"}, {"measurement": "Selective toxicity", "setting": "[1]", "result": 2030}, {"measurement": "IC50 at 72 h", "setting": "[2]; [6]", "result": 193, "unit": "µM"}, {"measurement": "IC50", "setting": "[3]", "result": 40, "unit": "µM"}, {"measurement": "Selective toxicity", "setting": "[3]", "result": 4.8}]}, {"smiles": "CCn1c(=O)/c(=C2\\Sc3ccccc3N2C)s/c1=C\\c1cccc[n+]1CCOCCOCCOC", "note": "[B-5]", "values": [{"measurement": "IC50", "setting": "[1]; [5]", "result": 0.37, "unit": "µM"}, {"measurement": "Selective toxicity", "setting": "[1]", "result": 338}, {"measurement": "IC50 at 72 h", "setting": "[2]; [6]", "result": 125, "unit": "µM"}, {"measurement": "IC50", "setting": "[3]", "result": 29, "unit": "µM"}, {"measurement": "Selective toxicity", "setting": "[3]", "result": 4.3}]}, {"smiles": "CCn1c(=O)/c(=C2\\Sc3ccccc3N2C)s/c1=C\\c1cccc[n+]1CCOCCOCCO", "note": "[B-6]", "values": [{"measurement": "IC50", "setting": "[1]; [5]", "result": 0.94, "unit": "µM"}, {"measurement": "Selective toxicity", "setting": "[1]", "result": 66}, {"measurement": "IC50 at 72 h", "setting": "[2]; [6]", "result": 61.9, "unit": "µM"}]}, {"smiles": "CCn1c(=O)/c(=C2\\Oc3ccc4ccccc4c3N2C)s/c1=C\\c1scc(C)[n+]1C", "note": "[B-9]", "values": [{"measurement": "IC50", "setting": "[1]; [5]", "result": 0.024, "unit": "µM"}, {"measurement": "Selective toxicity", "setting": "[1]", "result": 592}, {"measurement": "IC50 at 72 h", "setting": "[2]; [6]", "result": 14.2, "unit": "µM"}, {"measurement": "IC50", "setting": "[3]", "result": 0.22, "unit": "µM"}, {"measurement": "Selective toxicity", "setting": "[3]", "result": 65}]}, {"smiles": "CCn1c(=O)/c(=C2\\Oc3c(ccc4ccccc34)N2C)s/c1=C\\C1=[N+](CC)CCS1", "note": "[B-10]", "values": [{"measurement": "IC50", "setting": "[1]; [5]", "result": 0.035, "unit": "µM"}, {"measurement": "Selective toxicity", "setting": "[1]", "result": 529}, {"measurement": "IC50 at 72 h", "setting": "[2]; [6]", "result": 18.5, "unit": "µM"}, {"measurement": "IC50", "setting": "[3]", "result": 0.35, "unit": "µM"}, {"measurement": "Selective toxicity", "setting": "[3]", "result": 53}]}, {"smiles": "CCn1c(=O)/c(=c2\\s/c(=C3/Sc4ccccc4N3C)c(=O)n2CC)s/c1=C\\c1sc2ccccc2[n+]1C", "note": "[C-1]", "values": [{"measurement": "IC50", "setting": "[1]; [5]", "result": 0.009, "unit": "µM"}, {"measurement": "Selective toxicity", "setting": "[1]", "result": ">15600"}, {"measurement": "IC50 at 72 h", "setting": "[2]; [6]", "result": "> 140", "unit": "µM"}, {"measurement": "IC50", "setting": "[4]", "result": "> 140", "unit": "µM"}, {"measurement": "IC50", "setting": "[3]", "result": 14, "unit": "µM"}, {"measurement": "Selective toxicity", "setting": "[3]", "result": ">10"}]}, {"smiles": "O=C(Cn1ccnc1[N+](=O)[O-])NCc1ccccc1", "note": "[benznidazole, reference compound]", "values": [{"measurement": "IC50", "setting": "[3]", "result": 0.87, "unit": "µM"}]}, {"smiles": "Nc1nc(N)nc(Nc2ccc([As]3SCC(CO)S3)cc2)n1", "note": "(stereo not shown) [melarsoprol, reference compound]", "values": [{"measurement": "IC50", "setting": "[1]; STIB900, 72 h", "result": 0.006, "unit": "µM"}, {"measurement": "Selective toxicity", "setting": "[1]", "result": 1300}, {"measurement": "IC50 at 72 h", "setting": "[2]", "result": 7.8, "unit": "µM"}]}]}
